US20240228476A1, “INHIBITORS OF PROTEIN TYROSINE PHOSPHATASE, COMPOSITIONS, AND METHODS OF USE” (BRISTOL-MYERS SQUIBB COMPANY, priority 2022, published 2024)

Key:
PTPN2 [1] = biological target: T1, PTPN2 (Homo sapiens, UniProt P17706); test: PTPN2 biochemical assay (PhosphoSens, substrate AQT0264); details: PhosphoSens substrate AQT0264 20 μM, room temperature; read-out: PTPN2 BCHEM IC50
T1 sequence (P17706 1-415): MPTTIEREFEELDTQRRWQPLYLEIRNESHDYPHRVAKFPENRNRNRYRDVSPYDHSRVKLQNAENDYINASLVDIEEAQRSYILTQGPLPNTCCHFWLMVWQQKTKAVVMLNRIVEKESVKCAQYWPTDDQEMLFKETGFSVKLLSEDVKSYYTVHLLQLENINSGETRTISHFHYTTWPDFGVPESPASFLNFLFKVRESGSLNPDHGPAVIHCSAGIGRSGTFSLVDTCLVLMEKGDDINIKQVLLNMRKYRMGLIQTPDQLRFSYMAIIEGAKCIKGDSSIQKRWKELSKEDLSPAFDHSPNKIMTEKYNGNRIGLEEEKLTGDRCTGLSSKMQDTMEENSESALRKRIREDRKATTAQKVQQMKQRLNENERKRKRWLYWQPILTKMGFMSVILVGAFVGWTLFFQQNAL
Procedure: A PhosphoSens® kinase assay was performed as described by the vendor (AssayQuant Technologies, Marlborough, MA). Briefly, 1000× solutions of compounds were prepared in DMSO via serial dilution of the 10 mM DMSO stocks using 3-fold intervals in a 384-well reagent plate. 50 nL of the compound dilution series was then added to the corresponding wells of a 384-well assay plate. 40 mL of 1.25× substrate (AQT0264) in 1× assay buffer (50 mM HEPES pH 7.5, 500 μM EGTA, […] MgCl2, 0.01% Brij-35, 1% Glycerol, 1 mM DTT, and 0.2 mg/mL BSA) was transferred to each well of the assay plate to achieve a final substrate concentration of 20 μM. Finally, […] of 5×PTPN2 enzyme stock was added to each well of the assay plate for a final enzyme concentration of […]. Reaction progress curves were collected by sampling fluorescence intensity at the excitation wavelength 360 nm (λex360) and emission wavelength 480 nm (λem480) every 71 seconds for one hour using a Synergy H4 plate reader (BioTek Instruments/Agilent Technologies, Winooski, VT) at room temperature.
(§1) For IC50 data, High DDT concentration and/or DiFMUP substrate assays were used; a skilled artisan may use either assay.

phospho-STAT1 (Tyr701) = test: Phospho-STAT1 (Tyr701) HTRF assay in B16-F10 cells; format: cell-based; details: mouse IFN-gamma 100 ng/ml, 1 hour, read-out: pSTAT1 HTRF B16 EC50
Procedure: B16-F10 cells (ATCC, Manassas, VA, #CRL-6475) were cultured in DMEM growth medium (ThermoFisher Scientific, Waltham, MA, #11995-040) supplemented with 10% heat inactivated FBS (ThermoFisher Scientific, #16140-071) and 1% pen/strep (ThermoFisher Scientific, #15140-122). The cells were seeded into a white opaque 384-well tissue culture treated microplate (PerkinElmer, Waltham, MA, #6007688) at a density of 10,000 cells/well in 20 uL total volume and incubated overnight at 37 C and 5% CO2. 30 nL of compounds dissolved in DMSO were then transferred from a source plate into target wells with the Echo650 acoustic liquid handler (Beckman Coulter, Indianapolis, IN). Negative control wells received 30 nL of DMSO only (0.15% final concentration). Plates were returned to the incubator for 1 hour and then cells treated with either 5 uL of growth medium or 5 uL of growth medium containing 500 ng/ml of recombinant mouse IFN-gamma protein (R&D Systems, Minneapolis, MN, #485-MI/CF, 100 ng/ml final concentration) using the Assist automated pipetting platform (INTEGRA Biosciences, Hudson, NH). Plates were incubated at 37 C for 1 hour and assayed for phosphorylated STAT1 protein levels with the phospho-STAT1 (Tyr701) HTRF kit (Cisbio, Bedford, MA, #63ADK026PEH) according to manufacturer's instructions. HTRF signal intensity was collected with the En Vision 2105 plate reader (PerkinElmer) 24 hours later and analyzed with the Dotmatics software platform to calculate compound IC50 values.

B16-F10 cells = test: Cell proliferation assay (CellTiter-Glo) in B16-F10 cells with IFN-gamma; format: cell-based; details: 120 h, mouse IFN-gamma 10 ng/mL, read-out: PTPN2 Prolif 5d B16F10 EC50
Procedure: B16-F10 cells (ATCC, Manassas, VA, #CRL-6475) were cultured in DMEM growth medium (ThermoFisher Scientific, Waltham, MA, #11995-040) supplemented with 10% heat inactivated FBS (ThermoFisher Scientific, #16140-071) and 1% pen/strep (ThermoFisher Scientific, #15140-122). The cells were seeded into two white opaque 384-well tissue culture treated microplates (PerkinElmer, Waltham, MA, #6007688) at a density of 100 cells/well in 20 uL total volume and incubated overnight at 37 C and 5% CO2. 30 nL of compounds dissolved in DMSO were then transferred from a source plate into target wells with the Echo650 acoustic liquid handler (Beckman Coulter, Indianapolis, IN). Negative control wells received 30 nL of DMSO only (0.15% final concentration). Plates were returned to the incubator for 1 hour and then cells treated with either 5 uL of growth medium or 5 uL of growth medium containing 50 ng/ml of recombinant mouse IFN-gamma protein (R&D Systems, Minneapolis, MN, #485-MI/CF, 10 ng/mL final concentration) using the Assist automated pipetting platform (INTEGRA Biosciences, Hudson, NH). Plates were incubated at 37 C for 4 days and cell proliferation assayed with the CellTiter-Glo reagent (Promega, Madison, WI, #G7573, 25 uL per well). […] Off-target compound mediated cytotoxicity was identified by checking for growth inhibition in the absence of IFNg.

PTPN2 [2] = biological target: T1, PTPN2; test: Phosphatase activity assay using DiFMUP as substrate; format: biochemical; parameters: purchased MilliporeSigma SRP5075; details: 10 mM DTT, PTPN2 0.15 nM, room temperature, read-out: PTPN2 BCHEM DIFMUP IC50
Procedure: The PTPN2 biochemical assay was performed as follows, a 5× stock solution of human PTPN2 (SRP5075, MilliporeSigma, Burlington, MA) and a 1.25× stock solution of DiFMUP (D6567, ThermoFisher Scientific, Waltham, MA), were prepared in 1× reaction buffer consisting of 50 mM HEPES, pH 7.4, 1 mM EDTA, 150 mM NaCl, 0.2 mg/mL BSA, 100 U/mL catalase and 10 mM DTT. […] of the DiFMUP substrate solution, for a final concentration of […] DiFMUP substrate, was added to a Corning 3574 384-well, white, non-binding surface microtiter plate containing […] of serially diluted test compounds prepared in DMSO. The reactions were started with the addition of […] of the enzyme solution, for a final PTPN2 concentration of 0.15 nM, and monitored every 105 seconds for 60 minutes at λEX 360/λEM 460 in a BioTek Synergy HTX plate reader (Agilent Technologies, Santa Clara, CA) at room temperature. The initial linear portions of the progress curves were fit according to a linear equation to yield the slopes and converted to % inhibition based on a value of 100% activity for the no inhibitor treated control. IC50 values of each compound were obtained by fitting the % inhibition-compound concentration curves using Dotmatics software (Dotmatics, Bishops Stortford, Hertfordshire, England)
as §1

| Structure (SMILES) | IC50 (PTPN2 [1]) [nM] | EC50 (phospho-STAT1 (Tyr701)) [nM] | EC50 (B16-F10 cells) [nM] | IC50 (PTPN2 [2]) [nM] |
| --- | --- | --- | --- | --- |
| Cc1cc(NCc2cc(O)c(N3CC(=O)NS3(=O)=O)c(F)c2)ncn1 [EXAMPLE 26, 5-[2-fluoro-6-hydroxy-4-[[(6-methylpyrimidin-4-yl)amino]methyl]phenyl]-1,1-dioxo-1,2,5-thiadiazolidin-3-one] | 4 | 1200 | 470 | 20 |
| Cc1ncc(C)c(NCc2cc(O)c(N3CC(=O)NS3(=O)=O)c(F)c2)n1 [EXAMPLE 27, 5-[4-[[(2,5-dimethylpyrimidin-4-yl)amino]methyl]-2-fluoro-6-hydroxy-phenyl]-1,1-dioxo-1,2,5-thiadiazolidin-3-one] | 40 | 8600 | 10100 | 30 |
| CC(C)(C)c1ccc(Oc2ccc(NCc3cc(O)c(N4CC(=O)NS4(=O)=O)c(F)c3)cn2)cc1 [EXAMPLE 31, 5-[4-[[[6-(4-tert-butylphenoxy)-3-pyridyl]amino]methyl]-2-fluoro-6-hydroxy-phenyl]-1,1-dioxo-1,2,5-thiadiazolidin-3-one] | 20 | > 15000 | > 15000 | 60 |
